Assay results published in PMC8058163 (Clinical pharmacology and therapeutics, 2020).
“And” between values parts separate entries of the source, which are not always exact repeats. Identical values can stand only once. Like-named read-outs stand apart in the source and are kept apart here.

How the values were obtained:
MATE1 = biological target: T1, MATE1 (Homo sapiens, UniProt Q96FL8); assay: Transporter inhibition assay, MATE1
T1 sequence (Q96FL8 1-570): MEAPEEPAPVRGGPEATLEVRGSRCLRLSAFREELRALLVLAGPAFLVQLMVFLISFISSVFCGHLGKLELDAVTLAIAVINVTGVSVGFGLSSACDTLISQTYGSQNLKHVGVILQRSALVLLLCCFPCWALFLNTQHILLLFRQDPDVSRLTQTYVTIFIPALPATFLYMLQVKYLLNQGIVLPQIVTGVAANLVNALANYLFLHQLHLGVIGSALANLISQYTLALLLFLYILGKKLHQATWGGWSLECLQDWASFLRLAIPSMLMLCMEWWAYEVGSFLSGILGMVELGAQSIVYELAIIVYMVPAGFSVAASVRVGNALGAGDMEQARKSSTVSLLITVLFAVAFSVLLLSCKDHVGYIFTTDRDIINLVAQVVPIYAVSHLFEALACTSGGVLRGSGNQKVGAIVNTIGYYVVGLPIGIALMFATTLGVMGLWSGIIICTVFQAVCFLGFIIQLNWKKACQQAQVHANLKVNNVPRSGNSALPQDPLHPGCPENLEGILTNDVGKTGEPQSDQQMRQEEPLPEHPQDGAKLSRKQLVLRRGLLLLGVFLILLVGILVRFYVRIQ

OCT2 = biological target: T2, OCT2 (Homo sapiens, UniProt O15244); assay: Transporter inhibition assay, OCT2
T2 sequence (O15244 1-555): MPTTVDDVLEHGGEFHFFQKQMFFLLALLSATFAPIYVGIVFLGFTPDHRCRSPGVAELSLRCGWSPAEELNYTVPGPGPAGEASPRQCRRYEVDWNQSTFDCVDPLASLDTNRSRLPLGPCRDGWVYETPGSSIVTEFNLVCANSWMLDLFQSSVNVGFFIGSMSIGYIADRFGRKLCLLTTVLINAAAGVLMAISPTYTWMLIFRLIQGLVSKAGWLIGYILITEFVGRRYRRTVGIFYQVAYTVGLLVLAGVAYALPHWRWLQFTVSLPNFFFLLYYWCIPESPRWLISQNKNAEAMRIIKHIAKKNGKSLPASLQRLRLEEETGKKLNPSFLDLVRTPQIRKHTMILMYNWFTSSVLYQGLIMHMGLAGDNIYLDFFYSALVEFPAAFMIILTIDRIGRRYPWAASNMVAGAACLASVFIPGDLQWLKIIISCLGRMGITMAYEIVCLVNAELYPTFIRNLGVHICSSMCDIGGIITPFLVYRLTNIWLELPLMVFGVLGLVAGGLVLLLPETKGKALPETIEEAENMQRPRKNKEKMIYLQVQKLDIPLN

OATP1B1 = biological target: T3, OATP1B1 (Homo sapiens, UniProt Q9Y6L6); assay: Transporter inhibition assay, OATP1B1; details: for inhibition at 100 μM: cell line (HEK293 or MDCKII) stably expressing OATP1B1
T3 sequence (Q9Y6L6 1-691): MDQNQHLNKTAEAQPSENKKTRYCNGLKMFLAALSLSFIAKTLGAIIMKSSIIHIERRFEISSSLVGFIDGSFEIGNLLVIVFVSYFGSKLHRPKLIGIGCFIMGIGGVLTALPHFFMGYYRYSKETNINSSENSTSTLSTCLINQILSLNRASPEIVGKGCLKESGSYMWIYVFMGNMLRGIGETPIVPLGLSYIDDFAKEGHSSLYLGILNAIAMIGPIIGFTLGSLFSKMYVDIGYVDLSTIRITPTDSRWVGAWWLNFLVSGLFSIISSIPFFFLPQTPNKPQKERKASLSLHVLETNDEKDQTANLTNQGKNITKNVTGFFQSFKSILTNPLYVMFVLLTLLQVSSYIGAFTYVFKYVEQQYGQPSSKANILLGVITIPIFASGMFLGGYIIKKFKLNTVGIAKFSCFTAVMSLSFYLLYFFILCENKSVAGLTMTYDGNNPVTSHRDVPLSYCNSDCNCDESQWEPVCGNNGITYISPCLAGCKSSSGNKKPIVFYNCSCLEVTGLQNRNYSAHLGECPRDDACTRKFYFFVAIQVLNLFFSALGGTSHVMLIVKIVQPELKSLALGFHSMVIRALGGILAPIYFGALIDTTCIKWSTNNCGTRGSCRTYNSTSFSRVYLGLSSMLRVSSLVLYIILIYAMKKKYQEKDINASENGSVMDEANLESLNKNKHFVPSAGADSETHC

BCRP = biological target: T4, BCRP (Homo sapiens, UniProt Q9UNQ0); assay: Vesicular transport inhibition assay, BCRP
T4 sequence (Q9UNQ0 1-655): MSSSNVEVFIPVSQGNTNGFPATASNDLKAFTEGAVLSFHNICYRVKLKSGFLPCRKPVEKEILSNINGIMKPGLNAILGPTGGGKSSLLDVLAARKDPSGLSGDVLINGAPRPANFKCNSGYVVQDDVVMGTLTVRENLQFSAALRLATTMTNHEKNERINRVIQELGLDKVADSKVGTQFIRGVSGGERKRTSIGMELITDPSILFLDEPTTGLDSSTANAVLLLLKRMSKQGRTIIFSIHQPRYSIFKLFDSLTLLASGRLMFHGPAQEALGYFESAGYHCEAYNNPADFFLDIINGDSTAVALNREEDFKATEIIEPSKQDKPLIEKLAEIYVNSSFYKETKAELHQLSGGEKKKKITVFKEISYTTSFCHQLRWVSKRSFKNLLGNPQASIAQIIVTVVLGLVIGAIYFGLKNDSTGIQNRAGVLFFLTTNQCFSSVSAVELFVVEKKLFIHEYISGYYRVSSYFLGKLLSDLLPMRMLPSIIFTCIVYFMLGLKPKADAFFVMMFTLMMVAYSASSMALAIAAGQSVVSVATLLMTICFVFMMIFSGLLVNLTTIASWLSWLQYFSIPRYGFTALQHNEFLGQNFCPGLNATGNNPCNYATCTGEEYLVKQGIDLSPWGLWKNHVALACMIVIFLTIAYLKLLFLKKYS

MRP2 = MRP2 (Homo sapiens, UniProt Q92887); assay: Transporter inhibition assay, MRP2
Sequence of MRP2 (Q92887 whole entry): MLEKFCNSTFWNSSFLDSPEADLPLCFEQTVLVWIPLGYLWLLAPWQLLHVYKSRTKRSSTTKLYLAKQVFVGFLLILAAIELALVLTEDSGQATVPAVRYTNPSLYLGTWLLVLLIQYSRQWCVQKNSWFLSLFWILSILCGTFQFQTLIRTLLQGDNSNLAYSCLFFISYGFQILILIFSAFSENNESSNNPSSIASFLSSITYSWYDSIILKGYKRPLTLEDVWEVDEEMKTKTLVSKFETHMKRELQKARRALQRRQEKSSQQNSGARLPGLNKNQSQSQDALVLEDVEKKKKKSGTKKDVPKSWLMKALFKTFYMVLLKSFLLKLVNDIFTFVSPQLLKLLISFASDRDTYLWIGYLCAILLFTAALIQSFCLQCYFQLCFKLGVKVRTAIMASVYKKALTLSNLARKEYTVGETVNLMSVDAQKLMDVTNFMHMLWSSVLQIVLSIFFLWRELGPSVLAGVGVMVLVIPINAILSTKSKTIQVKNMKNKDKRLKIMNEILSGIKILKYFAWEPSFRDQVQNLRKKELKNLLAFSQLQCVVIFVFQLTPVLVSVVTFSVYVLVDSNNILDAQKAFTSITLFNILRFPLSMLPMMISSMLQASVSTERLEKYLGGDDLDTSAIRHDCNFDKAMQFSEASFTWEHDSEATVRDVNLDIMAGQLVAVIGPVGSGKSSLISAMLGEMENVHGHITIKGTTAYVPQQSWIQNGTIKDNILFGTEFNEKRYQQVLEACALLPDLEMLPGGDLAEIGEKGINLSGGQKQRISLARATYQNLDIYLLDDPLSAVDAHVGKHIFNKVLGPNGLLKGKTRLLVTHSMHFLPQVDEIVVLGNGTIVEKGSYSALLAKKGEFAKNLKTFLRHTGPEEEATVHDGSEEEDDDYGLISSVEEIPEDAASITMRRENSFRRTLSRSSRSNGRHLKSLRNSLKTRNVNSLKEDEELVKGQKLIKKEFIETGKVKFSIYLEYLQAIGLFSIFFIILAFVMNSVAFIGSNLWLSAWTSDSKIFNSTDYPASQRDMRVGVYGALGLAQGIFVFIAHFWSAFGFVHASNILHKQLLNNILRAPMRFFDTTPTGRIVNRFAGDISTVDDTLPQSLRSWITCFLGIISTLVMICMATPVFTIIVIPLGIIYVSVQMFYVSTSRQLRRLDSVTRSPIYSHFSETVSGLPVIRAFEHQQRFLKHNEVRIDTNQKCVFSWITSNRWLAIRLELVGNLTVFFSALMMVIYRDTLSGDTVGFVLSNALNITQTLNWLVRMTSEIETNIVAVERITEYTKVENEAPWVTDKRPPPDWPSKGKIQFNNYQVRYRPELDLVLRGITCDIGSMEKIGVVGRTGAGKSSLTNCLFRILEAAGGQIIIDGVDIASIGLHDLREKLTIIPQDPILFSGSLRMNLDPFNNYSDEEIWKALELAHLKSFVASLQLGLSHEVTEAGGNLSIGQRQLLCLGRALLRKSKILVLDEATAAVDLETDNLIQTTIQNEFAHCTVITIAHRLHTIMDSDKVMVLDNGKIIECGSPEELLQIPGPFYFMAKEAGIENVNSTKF

Row | SMILES | IC50 (MATE1) | IC50 (OCT2) | inhibition at 100 μM (OATP1B1) | inhibition at 100 μM (BCRP) | inhibition at 100 μM (MRP2) | IC50 (MATE1; IC50, MATE1, isolated alkaloids, mean [95% CI], three technical replicates) | IC50 (BCRP) | IC50 (MATE1; MATE1, isolated alkaloids, mean [95% CI], three technical replicates) | IC50 (OCT2; OCT2, isolated alkaloids, mean [95% CI], three technical replicates) | IC50 (OATP1B1; OATP1B1, isolated alkaloids, mean [95% CI], three technical replicates) | IC50 (BCRP; BCRP, isolated alkaloids, mean [95% CI], three technical replicates) | inhibition at the highest concentration tested (MRP2; MRP2, alkaloids screened at 10 and 100 μM)
1 | CN1CCc2cc3c(cc2C1O)OCO3 (stereo not drawn) [Hydrastinine, hydrastinine chloride monohydrate] | 82 µM | 95 µM | < 20% | < 20% | < 20% |  |  |  |  |  |  | 
2 | COc1ccc2cc3[n+](cc2c1OC)CCc1cc2c(cc1-3)OCO2 [Berberine, berberine chloride] |  | 45 µM | < 20% |  | < 20% | < 1 µM and 0.73 µM | 180 µM |  |  |  |  | 
3 | COc1ccc2c(c1OC)C(=O)O[C@@H]2[C@H]1c2cc3c(cc2CCN1C)OCO3 [(−)-β-Hydrastine, (1R,9S)-(−)-β-Hydrastine] |  |  |  |  |  |  |  | 110 µM | 90 µM | 120 µM | 86.2 µM | -- (inhibition not observed)
